What all share (format): functional, cell-based
In assay [1] the target is T1, Bombesin receptor subtype-3 (Mus musculus, UniProt O54798).
T1 sequence (O54798 whole entry): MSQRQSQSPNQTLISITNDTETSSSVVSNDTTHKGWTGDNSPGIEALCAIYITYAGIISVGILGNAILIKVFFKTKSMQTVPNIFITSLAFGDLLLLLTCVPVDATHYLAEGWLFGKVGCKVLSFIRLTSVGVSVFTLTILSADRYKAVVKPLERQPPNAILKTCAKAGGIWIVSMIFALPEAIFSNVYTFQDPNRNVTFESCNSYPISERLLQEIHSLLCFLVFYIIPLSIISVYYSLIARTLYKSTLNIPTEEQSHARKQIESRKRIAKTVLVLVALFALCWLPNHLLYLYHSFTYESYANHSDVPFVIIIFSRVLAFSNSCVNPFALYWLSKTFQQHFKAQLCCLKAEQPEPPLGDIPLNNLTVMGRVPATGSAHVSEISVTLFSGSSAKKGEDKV
The experiment in a line: Agonistic activity at mouse BRS3 expressed in HEK293AEO cells by aequorin bioluminescence assay.

For assay [2], the target named is T2, Bombesin receptor subtype-3 (Homo sapiens, UniProt P32247).
T2 sequence (P32247 whole entry): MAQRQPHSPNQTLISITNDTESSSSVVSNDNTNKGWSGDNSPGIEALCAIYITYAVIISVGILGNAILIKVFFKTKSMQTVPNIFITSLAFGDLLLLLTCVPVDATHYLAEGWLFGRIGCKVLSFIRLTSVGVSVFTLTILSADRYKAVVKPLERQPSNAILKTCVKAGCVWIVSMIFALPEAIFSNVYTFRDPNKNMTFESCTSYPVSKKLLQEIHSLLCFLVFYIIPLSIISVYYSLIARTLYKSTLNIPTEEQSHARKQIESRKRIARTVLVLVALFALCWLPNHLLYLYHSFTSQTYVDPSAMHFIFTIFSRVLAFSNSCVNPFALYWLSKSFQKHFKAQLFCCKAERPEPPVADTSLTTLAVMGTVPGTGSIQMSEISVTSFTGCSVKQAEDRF
In words: Agonistic activity at human BRS3 expressed in HEK293AEO cells by aequorin bioluminescence assay.

Assay [3] addresses T3, Bombesin receptor subtype-3 (Mus musculus) (UniProt O54798).
T3 sequence (whole entry): T1 sequence (O54798 whole entry)
The experiment in a line: Agonistic activity at mouse BRS3 expressed in HEK293AEO cells at 10 uM by aequorin bioluminescence assay relative to dY peptide.

Assay [4] concerns the target T4, Bombesin receptor subtype-3 (Homo sapiens) (UniProt P32247).
T4 sequence (whole entry): T2 sequence (P32247 whole entry)
In words: Agonistic activity at human BRS3 expressed in HEK293AEO at 10 uM cells by aequorin bioluminescence assay relative to dY peptide.

For 18 molecules, EC50 and Activity results are on record in ChEMBL document CHEMBL1155395, “Discovery of substituted biphenyl imidazoles as potent, bioavailable bombesin receptor subtype-3 agonists” (Bioorg Med Chem Lett, 2010).

Where only a bound is given, the exact number is not on record here.

In the case of `CC(C)(C)c1cnc(CCc2ccc(-c3ccccc3C(=O)O)cc2)[nH]1`, the EC50 in assay [1] came out at 2740 nM; in assay [2], 4330 nM. The Activity in assay [3] turned out to be 108%; in assay [4], 45%.
As to `CC(C)CCc1cnc(CCc2ccc(-c3ccccc3C(=O)O)cc2)[nH]1`, the EC50 in assay [1] was 10 nM; in assay [2] it was 119 nM. Further, the Activity in assay [3] stood at 111%; in assay [4] it was 112%.
In the case of `CCCCc1cnc(CCCc2ccc(-c3ccccc3C(=O)O)cc2)[nH]1`, the results for the concentration giving a half-maximal response (EC50) in assay [1] and in assay [2] were 382 nM and 5600 nM, respectively. Moreover, the Activity in assay [3] stood at 101%; in assay [4] it was 54%.
For `O=C(O)c1ccccc1-c1ccc(CCc2ncc(CC3CCCC3)[nH]2)cc1` the same measures were 7.9 nM, 133 nM, 94% and 102%.
Regarding `O=C(O)c1ccccc1-c1ccc(CCc2ncc(CCc3ccccc3)[nH]2)cc1`, the EC50 stood at 174 nM in assay [1] and 1320 nM in assay [2]. Further, the Activity in assay [3] was 89%; in assay [4] it was 86%.
As for `O=C(O)c1ccccc1-c1ccc(CCc2ncc(Cc3cccc(F)c3)[nH]2)cc1`, the EC50 in assay [1] stood at 7.9 nM; in assay [2] it was 159 nM. The Activity in assay [3] is 108%; in assay [4], 107%.
As to `O=C(O)c1ccccc1-c1ccc(CCc2ncc(CC3CCCCCC3)[nH]2)cc1`, the EC50 turned out to be 5.7 nM in assay [1] and 88 nM in assay [2]. In addition, the results for the Activity in assay [3] and in assay [4] were 102% and 106%, respectively.
For `O=C(O)c1ccccc1-c1ccc(CCc2ncc(CC3CC3)[nH]2)cc1`, the EC50 was found to be 72 nM in assay [1] and 1000 nM in assay [2]. Besides, the Activity in assay [3] turned out to be 144%; in assay [4] it was 96%.
The like results for `Cc1cccc(Cc2cnc(CCc3ccc(-c4ccccc4C(=O)O)cc3)[nH]2)c1` were, in that order, 75 nM, 4310 nM, 89% and 87%.
On to `O=C(O)c1ccccc1-c1ccc(CCc2ncc(CCC3CCCCC3)[nH]2)cc1`, for which the EC50 was found to be 33 nM in assay [1] and 642 nM in assay [2]. For the same molecule, the Activity in assay [3] worked out at 101%; in assay [4] it was 94%.
The like results for `O=C(O)c1ccccc1-c1ccc(CCc2ncc(Cc3ccc(F)cc3)[nH]2)cc1` were, in that order, 50 nM, 1600 nM, 104% and 84%.
Take `CCCCc1cnc(C(CCCC)Cc2ccc(-c3ccccc3C(=O)O)cc2)[nH]1` (stereo not drawn): the EC50 in assay [1] worked out at 527 nM; in assay [2] it was 2660 nM. In addition, the Activity in assay [3] came to 96%; in assay [4], 66%.
For the molecule `Cc1ccc(Cc2cnc(CCc3ccc(-c4ccccc4C(=O)O)cc3)[nH]2)cc1`, the EC50 in assay [1] amounted to 162 nM; in assay [2] it was 2660 nM. Besides, the Activity in assay [3] came to 120%; in assay [4], 88%.
The like results for `O=C(O)c1ccccc1-c1ccc(CCc2ncc(CC3CCCCC3)[nH]2)cc1` were, in that order, 7.3 nM, 41 nM, 102% and 104%.
In the case of `CCCCc1cnc(Cc2ccc(-c3ccccc3C(=O)O)cc2)[nH]1`, the EC50 in assay [1] and in assay [2] was more than 10000 nM each time. Moreover, the Activity in assay [3] and in assay [4] was 0% throughout.
As to `COc1ccccc1Cc1cnc(CCc2ccc(-c3ccccc3C(=O)O)cc2)[nH]1`, the results for the concentration for a half-maximal effect (EC50) in assay [1] and in assay [2] were 163 nM and 1720 nM, respectively. In addition, the results for the Activity in assay [3] and in assay [4] were 101% and 88%, respectively.
Take `O=C(O)c1ccccc1-c1ccc(CCc2nc(-c3ccccc3)c[nH]2)cc1`: the values for the EC50 in assay [1] and in assay [2] were 872 nM and 4950 nM, respectively.
`O=C(O)c1ccccc1-c1ccc(CCc2ncc(-c3ccccc3)[nH]2)cc1`: the Activity in assay [3] was 101%; in assay [4] it was 30%.

Broadly, the EC50 is the concentration giving half of the maximal effect. The low end stands for a more potent agent, the high end for a less potent agent.
